Data: patent publication US11684616B2, “Azalactam compounds as HPK1 inhibitors” (PFIZER INC., priority 2020, dated 2023)

These compounds were tested against human full-length autophosphorylated recombinant HPK1 (Homo sapiens (Human), UniProt Q92918) (assay: HPK1 biochemical enzyme assay (chelation-enhanced fluorescence, CHEF)). Details: 0.5 nM HPK1, 45 μM ATP, Morrison fit.
Method: HPK1 Biochemical Enzyme Assay
HPK1 enzyme inhibition was measured by using the fluorescence-based chelation-enhanced fluorescence (CHEF) method (1), and by using a proprietary fluorescent peptide substrate, in which a cysteine residue is alkylated with a sulfonamido-oxine-based derivative to afford an amino acid termed C-Sox (CSx). […] Initial reaction velocities were determined by following the peptide fluorescence (λex=360 nm, λem=500 nm) at 30° C. for 15 min in a Tecan M1000 plate reader (Tecan Group Ltd., Mannedorf, Zurich, Switzerland).
Production of Autophosphorylated Full-Length Recombinant HPK1
The DNA sequence encoding full-length human HPK1 (Genbank NM_001042600.2) was synthesized at GenScript and contained a limited number of silent base changes to eliminate certain restriction endonuclease enzyme recognition sites, and fused to a DNA sequence encoding a Tobacco Etch Virus (TEV)-cleavable N-terminal polyhistidine purification tag. A recombinant baculovirus was prepared by using the Bac-to-Bac method (InVitrogen) and was used to infect 9 L of Sf21 insect cells. All purification steps were carried out at 4° C. Cells containing recombinant HPK1 were lysed in 50 mM HEPES-NaOH, pH 7.5, 250 mM NaCl, 1 mM tris(2-carboxyethyl)phosphine (TCEP), 10 μM leupeptin (Sigma), 10 μM E-64 (Sigma), and one ‘EDTA-free’ protease inhibitor tablet (Roche) per 75 mL buffer, centrifuged at 15,000×g for 1 h and the supernatant passed over 5 mL of ProBond IMAC resin (InVitrogen). After washing, HPK1 was eluted with 12.5 mL of 50 mM HEPES-NaOH, pH 7.5, 400 mM NaCl, 250 mM imidazole-HCl pH 7.5, 1 mM TCEP, 2 μM leupeptin, and 2 μM E-64. The eluted HPK1 was dialyzed overnight against 0.8 L of 50 mM HEPES-NaOH, pH 7.5, 400 mM NaCl, 20 mM imidazole-HCl pH 7.5, 1 mM TCEP, 2 μM leupeptin, 2 μM E-64, 2 mM ATP-NaOH pH 7.3, 5 mM MgCl2 and 1 mg TEV (this step simultaneously allows for reduction of the imidazole concentration in preparation for the subsequent reverse IMAC chromatography step, removal of the polyhistidine purification tag by TEV protease, and autophosphorylation of HPK1 in the presence of MgATP). The de-tagged and autophosphorylated HPK1 was adjusted to 40 mM imidazole-HCl, pH 7.5, and passed through a 10 mL column of ProBond resin similarly equilibrated. […] The peak fractions containing HPK1 were pooled and concentrated to approximately 2.5 mL by using a centrifugal concentrator (Millipore). The concentrated HPK1 was adjusted to 20% (v/v) glycerol by the addition of 50% (v/v) glycerol, resulting in a final formulation of 25 mM HEPES-NaOH pH 7.5, 250 mM NaCl, 0.25 mM TCEP and 20% (v/v) glycerol. […] Aliquots of the enzyme were flash frozen in liquid nitrogen and stored at −80° C. The final product contains a glycine-serine extension at the N-terminus of the full-length protein, as a result of the cloning strategy.

Sequence of human full-length autophosphorylated recombinant HPK1 (Q92918 other isoform, or with tags, fused parts or gaps): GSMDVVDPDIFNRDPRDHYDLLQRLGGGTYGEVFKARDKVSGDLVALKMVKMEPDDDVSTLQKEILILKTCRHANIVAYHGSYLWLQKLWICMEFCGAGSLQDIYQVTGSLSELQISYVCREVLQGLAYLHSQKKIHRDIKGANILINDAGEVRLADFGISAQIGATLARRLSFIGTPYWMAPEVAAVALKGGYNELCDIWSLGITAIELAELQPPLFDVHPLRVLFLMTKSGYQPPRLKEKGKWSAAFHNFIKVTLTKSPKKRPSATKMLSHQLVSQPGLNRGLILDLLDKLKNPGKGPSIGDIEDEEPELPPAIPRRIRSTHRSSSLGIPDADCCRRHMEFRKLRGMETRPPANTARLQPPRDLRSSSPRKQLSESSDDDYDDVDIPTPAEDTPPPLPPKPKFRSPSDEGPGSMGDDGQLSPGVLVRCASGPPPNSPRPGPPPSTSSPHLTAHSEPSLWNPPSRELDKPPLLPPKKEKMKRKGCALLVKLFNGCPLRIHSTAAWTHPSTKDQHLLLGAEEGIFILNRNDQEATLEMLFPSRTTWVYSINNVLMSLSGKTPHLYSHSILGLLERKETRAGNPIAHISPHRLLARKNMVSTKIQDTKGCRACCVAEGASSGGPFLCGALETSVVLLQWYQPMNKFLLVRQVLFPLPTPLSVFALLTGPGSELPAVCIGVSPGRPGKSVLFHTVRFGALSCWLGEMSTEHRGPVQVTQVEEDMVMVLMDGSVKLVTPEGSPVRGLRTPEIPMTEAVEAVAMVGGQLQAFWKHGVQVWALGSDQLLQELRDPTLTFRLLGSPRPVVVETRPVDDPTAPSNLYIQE

SMILES	Ki [nM]
CC[C@@H]1CCc2nnc(-c3cccc(N4Cc5c(cc(N6CCC[C@H]6C)nc5[C@@H](C)N)C4=O)n3)n21 [Example 7, 4-[(1R)-1-aminoethyl]-2-{6-[(5R)-5-ethyl-6,7-dihydro-5H-pyrrolo[2,1-c][1,2,4]triazol-3-yl]pyridin-2-yl}-6-[(2R)-2-methylpyrroli-din-1-yl]-2,3-dihydro-1H-pyrrolo[3,4-c]pyridin-1-one]	2.8
CC[C@@H]1CCc2nnc(-c3cccc(N4Cc5c(cc(N(C)C(C)C)nc5[C@@H](C)N)C4=O)n3)n21 [Example 12, 4-[(1R)-1-aminoethyl]-2-{6-[(5R)-5-ethyl-6,7-dihydro-5H-pyrrolo[2,1-c][1,2,4]triazol-3-yl]pyridin-2-yl}-6-[methyl(propan-2-yl)amino]-2,3-dihydro-1H-pyrrolo[3,4-c]pyridin-1-one]	1.98
CC[C@H]1CCc2nnc(-c3cccc(N4Cc5c(cc(N6CCC[C@H]6C)nc5[C@@H](N)CC)C4=O)n3)n21 [Example 15, 4-[(1S)-1-aminopropyl]-2-{6-[(5ξ)-5-ethyl-6,7-dihydro-5H-pyrrolo[2,1-c][1,2,4]triazol-3-yl]pyridin-2-yl}-6-[(2R)-2-methylpyrroli-din-1-yl]-2,3-dihydro-1H-pyrrolo[3,4-c]pyridin-1-one]	8.47
C[C@H](N)c1nc(N2CCC[C@H]2C)cc2c1CN(c1cccc(-c3nnc4n3[C@@H](CF)CC4)n1)C2=O [Example 19, 4-[(1ξ)-1-aminoethyl]-2-{6-[(5R)-5-(fluoromethyl)-6,7-dihydro-5H-pyrrolo[2,1-c][1,2,4]triazol-3-yl]pyridin-2-yl}-6-[(2R)-2-methylpyrroli-din-1-yl]-2,3-dihydro-1H-pyrrolo[3,4-c]pyridin-1-one]	0.15
CC[C@H](N)c1nc(N2CCC[C@H]2C)cc2c1CN(c1cccc(-c3nncn3CC)n1)C2=O [Example 141, 4-[(1S)-1-aminopropyl]-2-[6-(4-ethyl-4H-1,2,4-triazol-3-yl)pyridin-2-yl]-6-[(2R)-2-methylpyrroli-din-1-yl]-2,3-dihydro-1H-pyrrolo[3,4-c]pyridin-1-one]	0.44
CCCn1cnnc1-c1cccc(N2Cc3c(cc(N(C)C)nc3[C@@H](N)CC)C2=O)n1 [Example 143, 4-[(1ξ)-1-aminopropyl]-6-(dimethyl-amino)-2-[6-(4-propyl-4I-1,2,4-triazol-3-yl)pyridin-2-yl]-2,3-dihydro-1I-pyrrolo[3,4-c]pyridin-1-one]	3.73

Now from value to compound:

Ki [nM]	SMILES
5.6	CC[C@@H]1CCc2nnc(-c3cccc(N4Cc5c(cc(N6CCC[C@H]6C)nc5[C@H](C)N)C4=O)n3)n21 [Example 8, 4-[(1S)-1-aminoethyl]-2-{6-[(5R)-5-ethyl-6,7-dihydro-5H-pyrrolo[2,1-c][1,2,4]triazol-3-yl]pyridin-2-yl}-6-[(2R)-2-methylpyrroli-din-1-yl]-2,3-dihydro-1H-pyrrolo[3,4-c]pyridin-1-one]
1.76	C[C@@H]1CCCN1c1cc2c(c([C@@H](C)N)n1)CN(c1cccc(-c3nnc4n3[C@@H](C)CC4)n1)C2=O [Example 24, 4-[(1ξ)-1-aminoethyl]-2-{6-[(5ξ)-5-methyl-6,7-dihydro-5H-pyrrolo[2,1-c][1,2,4]triazol-3-yl]pyridin-2-yl}-6-[(2R)-2-methylpyrroli-din-1-yl]-2,3-dihydro-1H-pyrrolo[3,4-c]pyridin-1-one]
0.46	CCCn1cnnc1-c1cccc(N2Cc3c(cc(N4CCC[C@H]4C)nc3[C@@H](N)CC)C2=O)n1 [Example 145, 4-[(1S)-1-aminopropyl]-6-[(2R)-2-methylpyrroli-din-1-yl]-2-[6-(4-propyl-4H-1,2,4-triazol-3-yl)pyridin-2-yl]-2,3-dihydro-1H-pyrrolo[3,4-c]pyridin-1-one]
1.29	CC[C@@H]1CCc2nnc(-c3cccc(N4Cc5c(cc(N(C)C(C)C)nc5CNC)C4=O)n3)n21 [Example 204, 2-{6-[(5R)-5-ethyl-6,7-dihydro-5H-pyrrolo[2,1-c] [1,2,4]triazol-3-yl]pyridin-2-yl}-4-[(methyl-amino)methyl]-6-[methyl (propan-2-yl)amino]-2,3-dihydro-1H-pyrrolo[3,4-c] pyridin-1-one]
2.68	CC[C@@H]1CCc2nnc(-c3cccc(N4Cc5c(cc(N(C)C)nc5CNC)C4=O)n3)n21 [Example 207, 6-(dimethyl-amino)-2-{6-[(5R)-5-ethyl-6,7-dihydro-5H-pyrrolo[2,1-c] [1,2,4]triazol-3-yl]pyridin-2-yl}-4-[(methyl-amino)methyl]-2,3-dihydro-1H-pyrrolo[3,4-c] pyridin-1-one]
2.11	CNCc1nc(N(C)C)cc2c1CN(c1cccc(-c3nnc4n3[C@H](C)CC4)n1)C2=O [Example 209, 6-(dimethyl-amino)-4-[(methylamino)methyl]-2-{6-[(5R)-5-methyl-6,7-dihydro-5H-pyrrolo[2,1-c] [1,2,4]triazol-3-yl]pyridin-2-yl}-2,3-dihydro-1H-pyrrolo[3,4-c] pyridin-1-one]

What follows are compounds tested on Phospho-SLP-76 (Ser376) in Jurkat cells (assay: Phospho-SLP-76 (Ser376) HTRF assay in anti-CD3 stimulated Jurkat cells). Details: 30 min pre-treatment, anti-CD3 stimulation 15 min, read-out: pSLP76 IC50.
Assay type: cell-based
Method: Cell Based Assays Phospho-SLP-76 (Ser376) Homogeneous Time Resolved Fluorescence (HTRF) Assay
Jurkat cells were seeded at 90,000 cells/well in 90 uL of RPMI1640 growth medium containing 10% FBS and incubated at 37° C. with 5% CO2 overnight. The following day, compounds were serially diluted from a 10 mM top dose for an 11-point 3-fold dilution curve in DMSO. Compounds were intermediately diluted 1:100 into growth media prior to diluting 1:10 on cells for final concentration 10 μM to 0.1 nM in 0.1% DMSO. After 30 min pre-treatment with compounds, the cells were stimulated using 200 μg/mL of F(ab)2 complexed anti-CD3 (clone UCTH1) for 15 min at 37° C. with 5% CO2. Stimulation was stopped with ice cold PBS and cells were harvested by centrifugation before lysis in Cisbio lysis buffer (Cisbio, Bedford, Mass.). Lysates were transferred to white, low-volume plates containing anti-phospho-SLP-76-Cryptate plus anti-phospho-SLP-76-d2 HTRF antibodies and incubated overnight at room temperature protected from light according to the manufacturer's protocol (Cisbio, Bedford, Mass.). HTRF was measured on a Perkin Elmer Envision and IC50 values were calculated by concentration-response curve fitting utilizing four-parameter nonlinear regression analyses.

IC50 [nM]	SMILES
69	COC[C@@H](N)c1nc(C2(C)CC2)cc2c1CN(c1cccc(-c3nnc4n3[C@@H](C)CC4)n1)C2=O [Example 6a, 4-[(1)-1-amino-2-methoxyethyl]-6-(1-methylcyclopropyl)-2-{6-[(5S)-5-methyl-6,7-dihydro-5H-pyrrolo[2,1-c][1,2,4]triazol-3-yl]pyridin-2-yl}-2,3-dihydro-1H-pyrrolo[3,4-c]pyridin-1-one]
641	COC[C@@H](N)c1nc(C2(C)CC2)cc2c1CN(c1cccc(-c3nnc4n3[C@@H](C)CC4)n1)C2=O [Example 6b, 4-[(1)-1-amino-2-methoxyethyl]-6-(1-methylcyclopropyl)-2-{6-[(5S)-5-methyl-6,7-dihydro-5H-pyrrolo[2,1-c][1,2,4]triazol-3-yl]pyridin-2-yl}-2,3-dihydro-1H-pyrrolo[3,4-c]pyridin-1-one]

Same assay, conditions: Homo sapiens, Jurkat, 30 min pre-treatment, anti-CD3 stimulation 15 min, read-out: pSLP76 IC50

IC50 [nM]	SMILES
31	CC[C@@H](N)c1nc(N(C)C(C)C)cc2c1CN(c1cccc(-c3nnc4n3[C@@H](C)CC4)n1)C2=O [Example 5]
46	CC(C)N(C)c1cc2c(c([C@@H](C)N)n1)CN(c1cccc(-c3nnc4n3[C@@H](C)CC4)n1)C2=O [Example 21, 4-[(1R)-1-aminoethyl]-2-{6-[(5S)-5-methyl-6,7-dihydro-5H-pyrrolo[2,1-c][1,2,4]triazol-3-yl]pyridin-2-yl}-6-[methyl(propan-2-yl)amino]-2,3-dihydro-1H-pyrrolo[3,4-c]pyridin-1-one]
189	CCCn1cnnc1-c1cccc(N2Cc3c(cc(N(C)C)nc3[C@H](C)N)C2=O)n1 [Example 137, 4-[(1S)-1-aminoethyl]-6-(dimethyl-amino)-2-[6-(4-propyl-4H-1,2,4-triazol-3-yl)pyridin-2-yl]-2,3-dihydro-1H-pyrrolo[3,4-c]pyridin-1-one]
332	CCCn1cnnc1-c1cccc(N2Cc3c(cc(N(C)C)nc3[C@@H](C)N)C2=O)n1 [Example 138, 4-[(1R)-1-aminoethyl]-6-(dimethyl-amino)-2-[6-(4-propyl-4H-1,2,4-triazol-3-yl)pyridin-2-yl]-2,3-dihydro-1H-pyrrolo[3,4-c]pyridin-1-one]
